Measurements reported in ChEMBL document CHEMBL4177672 (Bioorg Med Chem Lett, 2017).
In brackets after ≈: the same amount, converted by molar mass.

What follows are compounds tested on Mycolicibacterium smegmatis (assay: Antitubercular activity against Mycobacterium smegmatis ATCC 607 incubated at 37 degC for 7 days by resazurin dye based fluorometry). Details: ATCC 607, 168 h.
Assay type: functional

**Q.** Which IC90 does the source give for `COc1nc2ccc(Br)cc2cc1C(c1ccoc1)C(O)(CCN(C)C)c1ccccc1` (racemic) here?
**A.** The IC90 was 0.06 to 1.57 µg/mL (≈ 0.121 to 3.17 µM).

What follows are compounds tested on Mycobacterium tuberculosis (assay: Growth inhibition of Mycobacterium tuberculosis H37Rv under aerobic condition after 4 days by MABA method). Details: 96 h.
Assay type: functional

**Q.** How did the MIC90 turn out when `COc1ncccc1C(c1cc2cc(Br)ccc2nc1OC)C(O)(CCN(C)C)c1cccc2c1OCO2` (mixture of isomers) was run?
**A.** Its MIC90 is 0.24 µg/mL.

Each compound was assayed on Homo sapiens (assay: Terminal half life in healthy human subjects dosed as single 400 mg dose on Day 1 followed by PK sampling (Days 1 to 14)). Details: in vivo.
Assay type: ADME, organism-based

**Q.** How did the beta t1/2 turn out when `COc1nc2ccc(Br)cc2cc1[C@@H](c1ccccc1)[C@@](O)(CCN(C)C)c1cccc2ccccc12` [BEDAQUILINE] was run?
**A.** The beta t1/2 was 5 to 6 months.

Each compound was assayed on Vero (assay: Cytotoxicity against African green monkey Vero cells after 72 hrs by MTS-PMS assay). Details: Chlorocebus sabaeus.
Assay type: cell-based

**Q.** Which IC50 does the source give for `COc1nc2ccc(Br)cc2cc1[C@@H](c1ccc(N(C)C)nc1)[C@@](O)(CCN(C)C)c1cccc(F)c1` here?
**A.** Its IC50 is over 10 µg/mL.

**Q.** Which IC50 does the source give for `COc1nc2ccc(Br)cc2cc1[C@@H](c1cccnc1N(C)C)[C@@](O)(CCN(C)C)c1cccc(F)c1` here?
**A.** Its IC50 is over 10 µg/mL.

**Q.** `COc1nc2ccc(Br)cc2cc1[C@@H](c1cc(C)c(C)s1)[C@@](O)(CCN(C)C)c1cccc(F)c1` was tested. Which IC50 did it give?
**A.** Its IC50 is over 10 µg/mL.

**Q.** For `COc1nc2ccc(Br)cc2cc1[C@@H](c1cncc(C)c1)[C@@](O)(CCN(C)C)c1cccc(F)c1`, which IC50 is on record?
**A.** Its IC50 is over 10 µg/mL.

**Q.** How did the IC50 turn out when `COc1nc2ccc(Br)cc2cc1[C@@H](c1ccnc(OC)c1OC)[C@@](O)(CCN(C)C)c1cccc(C#N)c1` was run?
**A.** The IC50 was over 10 µg/mL.

**Q.** For `CCSc1ccc([C@H](c2cc3cc(Br)ccc3nc2OC)[C@@](O)(CCN(C)C)c2cccc(F)c2)cn1`, which IC50 is on record?
**A.** Its IC50 is over 10 µg/mL.

**Q.** Which IC50 does the source give for `COc1nc2ccc(Br)cc2cc1[C@@H](c1ccnc(OC)c1OC)[C@@](O)(CCN(C)C)c1cccc(C)c1` here?
**A.** Its IC50 is over 10 µg/mL.

**Q.** Which IC50 does the source give for `COc1nc2ccc(Br)cc2cc1[C@@H](c1ccnc(OC)c1OC)[C@@](O)(CCN(C)C)c1cccc(OC(F)F)c1` here?
**A.** Its IC50 is over 10 µg/mL.

**Q.** For `COc1cc([C@H](c2cc3cc(Br)ccc3nc2OC)[C@@](O)(CCN(C)C)c2cccc(F)c2)cnc1OC`, which IC50 is on record?
**A.** Its IC50 is over 10 µg/mL.

**Q.** Which IC50 does the source give for `COc1nc2ccc(Br)cc2cc1[C@@H](c1ccccc1)[C@@](O)(CCN(C)C)c1cccc2ccccc12` [BEDAQUILINE] here?
**A.** The IC50 was over 10 µg/mL.
